From patent US12331042B2, “Compounds suitable for the treatment and prophylaxis of muscle wasting and other conditions” (priority 2019, dated 2025)

Columns and labels:
[1] = Storage stability at room temperature (NMR, LC-MS); format: physicochemical; conditions: several months storage at room temperature; confirmed via NMR and LC-MS
Excerpt: [2-(2-Furylmethylcarbamoylamino)-2-oxo-ethyl]

MuRF1 E3 ligase activity = MuRF1 E3 ligase activity (Homo sapiens, UniProt Q969Q1); assay: Inhibition of MuRF1 E3 ligase activity (ubiquitination, Western blot); format: biochemical; conditions: 20-100 μmol/L compound, 1 h at 37° C., based on ubiquitination patterns
Chain of MuRF1 E3 ligase activity (Q969Q1 whole entry): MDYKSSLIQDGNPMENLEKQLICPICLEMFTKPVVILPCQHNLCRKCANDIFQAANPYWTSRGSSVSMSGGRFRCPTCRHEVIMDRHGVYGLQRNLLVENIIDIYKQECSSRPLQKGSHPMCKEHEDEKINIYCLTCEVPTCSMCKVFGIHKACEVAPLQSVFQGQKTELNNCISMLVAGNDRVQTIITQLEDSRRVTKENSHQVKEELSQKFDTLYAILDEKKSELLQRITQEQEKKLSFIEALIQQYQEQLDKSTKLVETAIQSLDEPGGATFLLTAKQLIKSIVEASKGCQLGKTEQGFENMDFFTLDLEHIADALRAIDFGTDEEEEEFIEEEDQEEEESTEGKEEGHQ
Description: Compounds were then assessed for effects on MuRF1 E3 ligase activity directed to titin or to MuRF1 itself (self-ubiquitination) by mixing 75 nmol/L UBE1 (Boston Biochem), 1 μmol/L UbcH5c (Boston Biochem), 100 μmol/L Ubiquitin, 4 mmol/L ATP, 100 nmol/L Titin A168-170 with 20-100 μmol/L of respective compounds. Reactions were started by addition of 220 nmol/L MuRF1, followed by 1 h at 37° C., SDS PAGE and Western blot analysis with MuRF1 and titin specific antibodies. All reactions also included 5% DMSO.

[2] = system: diaphragm fiber bundle of MCT mice; assay: Contractile function of diaphragm fiber bundles, MCT mice; format: in vivo; conditions: MCT mice fed compound vs MCT; MCT impairs by around 20% vs sham
Description: To provide a direct functional assessment, the contractility in skeletal muscle fiber bundles, i.e. fibre bundle from the diaphragm of MCT mice and CIF mice, was measured as follows. A fiber bundle from the diaphragm was isolated to allow in vitro contractile function to be assessed using a length-controlled lever system (301B, Aurora Scientific Inc., Aurora, Canada), as described by Bowen et al., FASEB J, 2017, 31. Briefly, a muscle bundle was mounted vertically in a buffer-filled organ bath (˜22° C.), set at optimal length, and after 15 min was stimulated over a force-frequency protocol between 1-300 Hz (600 mA; 500 ms train duration; 0.25 ms pulse width). […] Shortening velocity was determined 10 ms after the first change in length and on the linear section of the transient (DMA software, Aurora Scientific). Force (N) was normalized to muscle cross-sectional area (CSA; cm^2) by dividing muscle mass (g) by the product of Lo (cm) and estimated muscle density (1.06), which allowed specific force in N/cm^2 to be calculated. Shortening velocity was normalized to optimal muscle length (in Lo/s), while power was calculated for each load as the product of shortening velocity and specific force (in W/cm^2).

[3] = system: eIF2B4, AS3MT, ATPAF1, GHDC, BAX protein levels in diaphragm; assay: Proteomic analysis (mass spectrometry) of diaphragm, MCT mice; format: in vivo; conditions: MCT + MyoMed-946/MCT, n=3 per group
Description: Proteins from frozen diaphragm samples in sham, MCT, and MCT+compound mice (n=3 per group) were powdered under liquid N2. Mass spectrometry was then performed at the DZHK mass spectrometry core facility at Bad Nauheim, as described in Konzer et al., Methods in molecular biology, 2013, 1005, 39-52. The relative ratios for MCT/sham and MCT+compound/MCT were determined, with only hits deemed to be differentially expressed and highly significant (P<0.01) further studied by Western blot.

Cc1cc(=O)oc2cc(OCc3ccc(C(=O)OCC(=O)NC(=O)NCc4ccco4)cc3)ccc12 [MyoMed-946, [2-(2-furylmethylcarbamoylamino)-2-oxo-ethyl] 4-[(4-methyl-2-oxo-chromen-7-yl)oxymethyl]benzoate]
decay on storage [1]: no trace of decay | inhibition of MuRF1 E3 ligase activity (MuRF1 E3 ligase activity): significantly inhibit MuRF1 E3 ligase activity | contractile dysfunction of the diaphragm (shortening velocity and power) [2]: essentially prevented | Protein Ratio (log2), AS3MT [3]: −0.31 | Protein Ratio (log2), ATPAF1 [3]: −0.68 | Protein Ratio (log2), BAX [3]: −0.73 | Protein Ratio (log2), GHDC [3]: −0.39 | Protein Ratio (log2), eIF2B4 [3]: 0.32
